40 molecules from US20250228835A1, “PYRIDINYLOXYPYRIDINES AND RELATED COMPOUNDS AND THEIR USE IN TREATING MEDICAL CONDITIONS” (Rectify Pharmaceuticals, Inc., priority 2024, published 2025) can be followed below.

One may read the EC50 as the concentration giving half of the maximal effect.

The target of one assay is T1, ABCB4 WT (Homo sapiens, UniProt P21439).
T1 construct: expressed in transfected cells
Briefly: ABCB4 WT assay: HiBit protein expression. Format: cell-based. The following applies: HEK-293 cells stably expressing HiBit-tagged ABCB4 WT; 24 h treatment; top concentration 30 μM; read-out: ABCB4 WT EC50, Emax. The method in brief: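 HEK-293 cells stably expressing HiBit-tagged human ABCB4 WT, treated 24 h at 37 °C with 11-dose 3-fold dilutions, top final 30 μM in 0.3% DMSO. HiBit lytic reagent luminescence read after 1 h at 25 °C; Emax and EC50 derived.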
On the technique in general: With HiBiT, luminescence reflects the tagged protein that the partner subunit can reach.

Another assay has as its target T2, ABCD2 WT (Homo sapiens, UniProt Q9UBJ2).
T2 construct: expressed in transfected cells
T2 sequence (Q9UBJ2 1-740): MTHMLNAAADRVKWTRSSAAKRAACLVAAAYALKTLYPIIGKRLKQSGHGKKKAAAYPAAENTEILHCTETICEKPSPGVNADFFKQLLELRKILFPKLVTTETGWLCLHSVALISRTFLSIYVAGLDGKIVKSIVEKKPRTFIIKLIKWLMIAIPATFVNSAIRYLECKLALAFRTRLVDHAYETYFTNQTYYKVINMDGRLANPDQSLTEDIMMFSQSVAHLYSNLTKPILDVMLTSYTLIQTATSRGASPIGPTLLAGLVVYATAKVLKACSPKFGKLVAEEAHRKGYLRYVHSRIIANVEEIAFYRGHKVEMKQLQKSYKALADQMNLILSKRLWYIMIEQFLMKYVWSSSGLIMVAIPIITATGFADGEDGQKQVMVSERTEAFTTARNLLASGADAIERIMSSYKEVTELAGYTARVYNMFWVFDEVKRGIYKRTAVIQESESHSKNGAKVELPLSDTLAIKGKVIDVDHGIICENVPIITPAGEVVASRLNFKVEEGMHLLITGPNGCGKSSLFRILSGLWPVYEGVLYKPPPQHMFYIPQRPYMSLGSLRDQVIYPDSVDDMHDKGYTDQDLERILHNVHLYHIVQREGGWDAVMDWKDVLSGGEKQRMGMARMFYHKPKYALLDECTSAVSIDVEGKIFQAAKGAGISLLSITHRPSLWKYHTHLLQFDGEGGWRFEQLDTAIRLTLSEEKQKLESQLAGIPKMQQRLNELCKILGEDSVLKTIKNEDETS
Briefly: D2 correction dose-response assay: ABCD2 WT HiBit protein expression. Format: cell-based. The following applies: HEK-293/ABCD2 WT cells, 24 hours treatment, HiBit luminescence; class combines EC50 and Mean MaxAct (fold); read-out: ABCD2 WT EC50, Emax. An outline of the steps:
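HEK-293 cells stably expressing HiBit-tagged human ABCD2 WT were treated with 11 doses (3-fold dilutions, top final 30 μM, 0.3% DMSO) for 24 h at 37 °C. Expression was measured by HiBit lytic luminescence after 1 h at 25 °C, giving EC50 and Emax.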

T1 sequence (P21439 whole entry): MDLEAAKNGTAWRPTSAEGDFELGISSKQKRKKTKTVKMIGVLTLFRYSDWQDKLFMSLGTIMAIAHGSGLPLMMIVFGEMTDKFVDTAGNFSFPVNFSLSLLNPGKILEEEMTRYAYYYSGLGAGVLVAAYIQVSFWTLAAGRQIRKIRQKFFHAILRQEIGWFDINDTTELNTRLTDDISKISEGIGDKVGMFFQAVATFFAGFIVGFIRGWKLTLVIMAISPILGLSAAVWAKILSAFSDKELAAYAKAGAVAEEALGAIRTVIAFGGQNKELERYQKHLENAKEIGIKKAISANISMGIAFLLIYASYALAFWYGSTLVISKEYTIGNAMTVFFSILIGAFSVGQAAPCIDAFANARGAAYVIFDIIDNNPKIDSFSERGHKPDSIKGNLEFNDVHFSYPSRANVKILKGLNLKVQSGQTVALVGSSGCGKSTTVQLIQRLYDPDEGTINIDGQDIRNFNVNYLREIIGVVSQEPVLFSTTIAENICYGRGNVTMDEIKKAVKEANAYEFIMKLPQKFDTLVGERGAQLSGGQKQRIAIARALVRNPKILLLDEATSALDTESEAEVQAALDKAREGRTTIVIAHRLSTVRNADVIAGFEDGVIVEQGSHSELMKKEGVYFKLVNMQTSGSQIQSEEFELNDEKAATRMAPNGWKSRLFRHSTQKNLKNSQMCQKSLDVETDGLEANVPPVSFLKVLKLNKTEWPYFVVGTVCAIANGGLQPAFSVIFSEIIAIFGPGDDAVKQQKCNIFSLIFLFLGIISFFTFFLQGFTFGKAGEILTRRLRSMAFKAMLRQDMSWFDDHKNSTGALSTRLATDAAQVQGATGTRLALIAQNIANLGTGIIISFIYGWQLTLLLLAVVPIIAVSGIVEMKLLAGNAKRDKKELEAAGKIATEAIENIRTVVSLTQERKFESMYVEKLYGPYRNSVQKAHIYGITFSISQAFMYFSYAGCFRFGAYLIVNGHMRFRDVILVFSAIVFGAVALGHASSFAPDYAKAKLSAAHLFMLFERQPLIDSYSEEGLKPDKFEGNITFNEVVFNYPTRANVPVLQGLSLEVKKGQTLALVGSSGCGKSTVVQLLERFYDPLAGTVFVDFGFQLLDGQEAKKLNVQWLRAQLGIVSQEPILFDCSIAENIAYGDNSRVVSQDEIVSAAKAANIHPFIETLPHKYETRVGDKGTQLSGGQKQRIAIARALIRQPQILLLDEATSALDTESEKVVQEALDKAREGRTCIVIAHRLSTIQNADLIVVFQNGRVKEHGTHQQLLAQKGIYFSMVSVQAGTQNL

For the molecule `Cc1nc(C)c(Oc2nc(-c3cncc(C(F)F)c3)ccc2NS(C)(=O)=O)c(C)n1` [Compound I-191], the EC50 on ABCB4 WT is under 1000 nM; on ABCD2 WT, 10000 to 25000 nM.

In the case of `Cc1nc(C)c(Oc2nc(-c3cncc(C(F)(F)F)c3)ccc2NS(C)(=O)=O)c(C)n1` [Compound I-192], the EC50 at ABCB4 WT was under 25000 nM; at ABCD2 WT it was over 25000 nM.

As for `Cc1nc(C)c(Oc2nc(-c3cncc(C4CC4)c3)ccc2NS(C)(=O)=O)c(C)n1` [Compound I-193], the EC50 on ABCB4 WT and at ABCD2 WT was under 1000 nM throughout.

As for `Cc1cc(C)c(Oc2nc(-c3cncc(C4CN(C)C4)c3)ccc2NS(C)(=O)=O)c(C)n1` [Compound I-194], the EC50 was at least 25000 nM at ABCB4 WT and over 25000 nM at ABCD2 WT.

`Cc1cc(C)c(Oc2nc(-c3cncc(N4CC(F)(F)C4)c3)ccc2NS(C)(=O)=O)c(C)n1` [Compound I-195]: the EC50 at ABCB4 WT is under 1000 nM; on ABCD2 WT, over 25000 nM.

As for `COC1CN(c2cncc(-c3ccc(NS(C)(=O)=O)c(Oc4c(C)cc(C)nc4C)n3)c2)C1` [Compound I-196], the values for the EC50 at ABCB4 WT and at ABCD2 WT were at least 25000 nM and under 1000 nM, respectively.

With `Cc1cc(C(F)F)nc(C)c1Oc1nc(-c2cncc(C3COC3)c2)ccc1NS(C)(=O)=O` [Compound I-197], the EC50 at ABCB4 WT was under 1000 nM; at ABCD2 WT, 1000 to 10000 nM.

`Cc1cc(C(F)(F)F)nc(C)c1Oc1nc(-c2cncc(C3COC3)c2)ccc1NS(C)(=O)=O` [Compound I-198]: the EC50 on ABCB4 WT was under 1000 nM; at ABCD2 WT it was over 25000 nM.

Take `Cc1cc(C(F)F)nc(C)c1Oc1nc(-c2cncc(C#N)c2)ccc1NS(=O)(=O)C1CC1` [Compound I-199]: the results for the EC50 at ABCB4 WT and at ABCD2 WT were under 1000 nM and 1000 to 10000 nM, respectively.

For `Cc1nc(C(F)(F)F)nc(C)c1Oc1nc(-c2cncc(C#N)c2)ccc1NS(C)(=O)=O` [Compound I-200], the concentration giving a half-maximal response (EC50) on ABCB4 WT and at ABCD2 WT was under 1000 nM throughout.

As to `Cc1cc(C)c(Oc2nc(-c3cncc(N4CCOCC4)c3)ccc2NS(C)(=O)=O)c(C)n1` [Compound I-201], the EC50 on ABCB4 WT is at least 25000 nM; on ABCD2 WT, 1000 to 10000 nM.

Regarding `Cc1cc(C(F)F)nc(C)c1Oc1nc(-c2cncc(Cl)c2)ccc1NS(C)(=O)=O` [Compound I-202], the EC50 on ABCB4 WT is under 25000 nM; on ABCD2 WT, over 25000 nM.

Consider `Cc1cc(C(F)F)nc(C)c1Oc1nc(-c2ccnc(C#N)c2)ccc1NS(=O)(=O)C1CC1` [Compound I-203], for which the EC50 was under 25000 nM at ABCB4 WT and under 1000 nM on ABCD2 WT.

Consider `Cc1cc(C(F)F)nc(C)c1Oc1nc(-c2ccnc(C#N)c2)ccc1NS(C)(=O)=O` [Compound I-204], for which the EC50 on ABCB4 WT and on ABCD2 WT was under 1000 nM throughout.

As for `Cc1nc(C(F)(F)F)nc(C)c1Oc1nc(-c2cncc(Cl)c2)ccc1NS(C)(=O)=O` [Compound I-205], the EC50 at ABCB4 WT was at least 25000 nM; at ABCD2 WT, under 1000 nM.

In the case of `COC(=O)c1cncc(-c2ccc(NS(C)(=O)=O)c(Oc3cc(C)n(C)n3)n2)c1` [Compound I-206], the figures for the EC50 at ABCB4 WT and on ABCD2 WT were under 25000 nM and over 25000 nM, respectively.

On to `Cc1cc(C2CCC2)nc(C)c1Oc1nc(-c2cncc(C#N)c2)ccc1NS(C)(=O)=O` [Compound I-208], for which the EC50 at ABCB4 WT is under 1000 nM; at ABCD2 WT it was over 25000 nM.

Consider `COc1nc(C)cc(C)c1Oc1nc(-c2cncc(C#N)c2)ccc1NS(C)(=O)=O` [Compound I-209], for which the EC50 at ABCB4 WT and on ABCD2 WT was under 1000 nM each time.

With `Cc1cc(C)c(Oc2nc(-c3ccnc(C#N)c3)ccc2NS(=O)(=O)C2CC2)c(C)n1` [Compound I-211], the EC50 at ABCB4 WT and at ABCD2 WT was under 1000 nM in each case.

In the case of `C#Cc1cncc(-c2ccc(NS(C)(=O)=O)c(Oc3c(C)cc(C)nc3C)n2)c1` [Compound I-212], the EC50 at ABCB4 WT and on ABCD2 WT was under 1000 nM in each case.

For `Cc1cc(C2CC2)nc(C)c1Oc1nc(-c2ccnc(C#N)c2)ccc1NS(C)(=O)=O` [Compound I-213], the concentration for a half-maximal effect (EC50) on ABCB4 WT was under 1000 nM; at ABCD2 WT, over 25000 nM.

Consider `Cc1cc(C)c(Oc2nc(-c3cncc(C4COC4)c3)ccc2NS(C)(=O)=O)c(C)n1` [Compound I-216], for which the EC50 on ABCB4 WT and on ABCD2 WT was under 1000 nM in each case.

`CCS(=O)(=O)Nc1ccc(-c2cncc(C#N)c2)nc1Oc1c(C)cc(C(F)(F)F)nc1C` [Compound I-217]: the EC50 at ABCB4 WT and at ABCD2 WT was under 1000 nM in each case.

On to `Cc1cc(C(F)(F)F)nc(C)c1Oc1nc(-c2cncc(C#N)c2)ccc1NS(=O)(=O)C1CC1` [Compound I-218], for which the concentration giving a half-maximal response (EC50) at ABCB4 WT was under 1000 nM; at ABCD2 WT, 10000 to 25000 nM.

As for `Cc1cc(C(F)(F)F)nc(C)c1Oc1nc(-c2ccnc(C#N)c2)ccc1NS(C)(=O)=O` [Compound I-219], the EC50 on ABCB4 WT and at ABCD2 WT was under 1000 nM throughout.

On to `Cc1cc(C)c(Oc2nc(-c3cncc(C(C)(C)O)c3)ccc2NS(C)(=O)=O)c(C)n1` [Compound I-220], for which the concentration giving a half-maximal response (EC50) on ABCB4 WT is at least 25000 nM; at ABCD2 WT it was over 25000 nM.

On to `Cc1cc(C)c(Oc2nc(-c3cncc(C#N)c3)ccc2N2CCCS2(=O)=O)c(C)n1` [Compound I-221], for which the EC50 at ABCB4 WT is at least 25000 nM; on ABCD2 WT it was over 25000 nM.

Consider `COc1cc(C)c(Oc2nc(-c3cncc(C#N)c3)ccc2NS(C)(=O)=O)c(C)n1` [Compound I-222], for which the EC50 at ABCB4 WT and at ABCD2 WT was under 1000 nM each time.

For `Cc1nc(C)c(C(F)(F)F)cc1Oc1nc(-c2cncc(C#N)c2)ccc1NS(C)(=O)=O` [Compound I-225], the EC50 on ABCB4 WT was under 25000 nM; at ABCD2 WT, under 1000 nM.

For the molecule `Cc1cc(Oc2nc(-c3cncc(C#N)c3)ccc2NS(C)(=O)=O)c(C)nc1C` [Compound I-226], the EC50 on ABCB4 WT and at ABCD2 WT was under 1000 nM throughout.

Regarding `Cc1cc(C)c(Oc2nc(-c3cncc(CO)c3)ccc2NS(C)(=O)=O)c(C)n1` [Compound I-227], the results for the EC50 on ABCB4 WT and on ABCD2 WT were under 25000 nM and 1000 to 10000 nM, respectively.

Consider `Cc1cc(C)c(Oc2nc(-c3cncc(C#N)c3)ccc2NS(=O)(=O)C2COC2)c(C)n1` [Compound I-228], for which the EC50 on ABCB4 WT is under 25000 nM; at ABCD2 WT, 1000 to 10000 nM.

As for `Cc1nc(C)c(C2CC2)cc1Oc1nc(-c2cncc(C#N)c2)ccc1NS(C)(=O)=O` [Compound I-229], the values for the EC50 on ABCB4 WT and on ABCD2 WT were under 25000 nM and 1000 to 10000 nM, respectively.

For `Cc1cc(C(F)F)nc(C)c1Oc1nc(-c2cncc(C#N)c2)ccc1NS(C)(=O)=O` [Compound I-230], the EC50 on ABCB4 WT and on ABCD2 WT was under 1000 nM each time.

Regarding `COCc1cncc(-c2ccc(NS(C)(=O)=O)c(Oc3c(C)cc(C)nc3C)n2)c1` [Compound I-231], the results for the EC50 at ABCB4 WT and at ABCD2 WT were 1000 to 10000 nM and under 1000 nM, respectively.

With `Cc1cc(C)c(Oc2nc(-c3cncc(C4CC4)c3)ccc2NS(C)(=O)=O)c(C)n1` [Compound I-232], the figures for the EC50 on ABCB4 WT and on ABCD2 WT were under 25000 nM and under 1000 nM, respectively.

As for `Cc1nc(C)c(Oc2nc(-c3cncc(C#N)c3)ccc2NS(C)(=O)=O)c(C)n1` [Compound I-234], the EC50 at ABCB4 WT is 1000 to 10000 nM; on ABCD2 WT, under 1000 nM.

Consider `Cc1cc(C2CC2)nc(C)c1Oc1nc(-c2cncc(C#N)c2)ccc1NS(=O)(=O)C1COC1` [Compound I-235], for which the values for the EC50 on ABCB4 WT and on ABCD2 WT were under 25000 nM and under 1000 nM, respectively.

On to `Cc1cc(C2CC2)nc(C)c1Oc1nc(-c2cncc(Cl)c2)ccc1NS(=O)(=O)C1COC1` [Compound I-236], for which the EC50 on ABCB4 WT is under 25000 nM; on ABCD2 WT, under 1000 nM.

Take `Cc1cc(C)c(Oc2nc(-c3cncc(Cl)c3)ccc2NS(=O)(=O)C2COC2)c(C)n1` [Compound I-237]: the EC50 is under 25000 nM at ABCB4 WT and under 1000 nM on ABCD2 WT.
